# In patent US20080312147A1, “Compositions and Methods for the Regulation of Hair Growth” (NUGENE INC., priority 2007, published 2008):
# Tested on: 5-α-reductase
# Test: interruption of 5-α-reductase activity by copper containing peptides
# Type: biochemical
# Conditions: stated in words only; said to act by preventing binding of testosterone to the active site; no method or data given
row,Substance,interruption of the activity of 5-α-reductase
1,Gly-His-Lys-Cu(II),interrupt the activity of 5-α-reductase
2,Cu(II)-His-Val-His,interrupt 5-α-reductase
3,His-Ala-His-Cu(II),interrupt 5-α-reductase
